Assay results published in US4321196A, “Bis-esters of methanediol with acetonides of ampicillin or amoxicillin and penicillanic acid 1,1-dioxide” (Pfizer Inc., priority 1981, dated 1982).

Experiment: Serum half-life comparison of Compound I with Compound II in fasted rats, and general statements on absorption and half-life
Format: in vivo
Details: 20 mg/kg oral, versus Compound II (Y=H)
Method: Since the object of the present invention is to provide a single well-absorbed source of ampicillin/amoxicillin and penicillanic acid 1,1-dioxide in serum, the compounds of the present invention are also evaluated by determination of the serum levels of these derived compounds in experimental animals, such as laboratory rats. The serum level results in fasted rats following the oral administration of 20 mg./kg. of 6'-(2,2-dimethyl-4-phenyl-5-imidazolidinon-1-yl)-penicillanoyloxymethyl penicillanate 1,1-dioxide (I, Y=H) are shown in Table I. In this test, 6'-(2-amino-2-phenylacetamido)penicillanoyloxymethyl penicillanate 1,1-dioxide (II, Y=H) at the same oral dosage has been used as control. The blood level of ampicillin was determined by standard plate bioassay methods, using Sarcina lutea 07A001 on Seed agar. For determination of penicillanic acid 1,1-dioxide, Pasturella 59B010 on MH agar was employed. It will be noted there is an approximately 50% improvement in the half-life of Compound I (Y=H) over Compound II (Y=H).

In the case of `CC1(C)S[C@@H]2[C@H](N3C(=O)[C@@H](c4ccccc4)NC3(C)C)C(=O)N2[C@H]1C(=O)OCOC(=O)[C@@H]1N2C(=O)C[C@H]2S(=O)(=O)C1(C)C` [Compound I (Y = H), 6'-(2,2-Dimethyl-4-phenyl-5-imidazolidinon-1-yl)-penicillanoyloxymethyl Penicillanate 1,1-Dioxide], the “Improvement in the half-life over Compound II (Y=H)” value is reported as “approximately 50%”.
